A short description of data set [1]: Fraction unbound in mouse plasma. Format: ADME, cell-free. The arrangement: dose or concentration left out as unconfirmed.
For data set [2], the target named is T1, Ectonucleoside triphosphate diphosphohydrolase 1 (Homo sapiens, UniProt P49961).
T1 sequence (P49961 whole entry): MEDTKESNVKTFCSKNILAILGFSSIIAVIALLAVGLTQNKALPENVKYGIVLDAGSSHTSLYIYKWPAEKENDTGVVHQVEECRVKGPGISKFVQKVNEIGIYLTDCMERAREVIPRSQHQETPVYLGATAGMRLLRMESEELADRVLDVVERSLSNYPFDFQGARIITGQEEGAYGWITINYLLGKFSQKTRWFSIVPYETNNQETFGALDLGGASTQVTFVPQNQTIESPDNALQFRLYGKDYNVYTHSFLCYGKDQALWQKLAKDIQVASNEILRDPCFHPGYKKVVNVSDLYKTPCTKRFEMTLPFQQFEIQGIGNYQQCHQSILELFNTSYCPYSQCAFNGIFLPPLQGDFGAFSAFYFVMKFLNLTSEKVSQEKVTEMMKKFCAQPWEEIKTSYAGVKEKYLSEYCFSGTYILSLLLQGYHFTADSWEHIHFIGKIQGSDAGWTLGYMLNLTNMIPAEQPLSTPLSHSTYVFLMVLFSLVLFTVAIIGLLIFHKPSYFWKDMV
In words: Inhibition of CD39 (unknown origin).

Data set [3] is described as follows: Half life in dog at 0.5 mg/kg, iv. Format: ADME, organism-based, Canis lupus familiaris. The settings on record: in vivo.
Data set [4] in a line: Volume of distribution at steady state in mouse at 0.5 mg/kg, iv. Type of data set: ADME, organism-based. To be noted: in vivo, read-out: Vdss.
Data set [5] can be described thus: Volume of distribution at steady state in Sprague-Dawley rat at 0.5 mg/kg, iv. Type of data set: ADME, organism-based. The settings on record: in vivo, read-out: Vdss.
The target of data set [6] is T2, Ectonucleoside triphosphate diphosphohydrolase 2 (Homo sapiens, UniProt Q9Y5L3).
T2 sequence (Q9Y5L3 whole entry): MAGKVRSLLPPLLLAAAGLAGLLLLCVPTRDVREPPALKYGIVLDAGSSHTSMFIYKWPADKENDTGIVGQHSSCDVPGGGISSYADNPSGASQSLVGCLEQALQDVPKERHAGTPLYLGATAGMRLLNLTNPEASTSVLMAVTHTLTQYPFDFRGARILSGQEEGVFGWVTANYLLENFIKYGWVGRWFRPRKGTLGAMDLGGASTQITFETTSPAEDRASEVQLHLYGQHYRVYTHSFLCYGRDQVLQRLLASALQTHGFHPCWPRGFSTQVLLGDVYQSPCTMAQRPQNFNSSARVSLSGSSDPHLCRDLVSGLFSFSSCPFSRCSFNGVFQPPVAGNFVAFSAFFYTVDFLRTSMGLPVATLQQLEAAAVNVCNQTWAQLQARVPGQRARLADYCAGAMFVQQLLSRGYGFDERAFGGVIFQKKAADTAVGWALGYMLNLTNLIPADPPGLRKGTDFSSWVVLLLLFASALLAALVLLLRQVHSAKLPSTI
The data set is described as follows: Inhibition of NTPDase 2 (unknown origin) expressed in CHO cells using ATP as substrate preincubated for 1 hr followed by substrate addition and measured after 50 mins by PiColorLock gold reagent based colorimetric assay. Type of data set: cell-based.

Data set [7] in a line: Clearance in mouse at 0.5 mg/kg, iv. To be noted: in vivo. Type of data set: ADME, organism-based.
Data set [8] in a line: Half life in Sprague-Dawley rat at 0.5 mg/kg, iv. Type of data set: ADME, organism-based. The settings on record: in vivo.
Data set [9] in a line: Fraction unbound in dog plasma. Type of data set: ADME, cell-free, Canis lupus familiaris.
Data set [10] can be described thus: Half life in mouse at 0.5 mg/kg, iv. Format: ADME, organism-based. The settings on record: in vivo.
The nature of data set [11]: Clearance in Sprague-Dawley rat at 0.5 mg/kg, iv. Format: ADME, organism-based. To be noted: in vivo.
For data set [12], the target named is T3, 5'-nucleotidase (Mus musculus, UniProt Q61503).
T3 sequence (Q61503 whole entry): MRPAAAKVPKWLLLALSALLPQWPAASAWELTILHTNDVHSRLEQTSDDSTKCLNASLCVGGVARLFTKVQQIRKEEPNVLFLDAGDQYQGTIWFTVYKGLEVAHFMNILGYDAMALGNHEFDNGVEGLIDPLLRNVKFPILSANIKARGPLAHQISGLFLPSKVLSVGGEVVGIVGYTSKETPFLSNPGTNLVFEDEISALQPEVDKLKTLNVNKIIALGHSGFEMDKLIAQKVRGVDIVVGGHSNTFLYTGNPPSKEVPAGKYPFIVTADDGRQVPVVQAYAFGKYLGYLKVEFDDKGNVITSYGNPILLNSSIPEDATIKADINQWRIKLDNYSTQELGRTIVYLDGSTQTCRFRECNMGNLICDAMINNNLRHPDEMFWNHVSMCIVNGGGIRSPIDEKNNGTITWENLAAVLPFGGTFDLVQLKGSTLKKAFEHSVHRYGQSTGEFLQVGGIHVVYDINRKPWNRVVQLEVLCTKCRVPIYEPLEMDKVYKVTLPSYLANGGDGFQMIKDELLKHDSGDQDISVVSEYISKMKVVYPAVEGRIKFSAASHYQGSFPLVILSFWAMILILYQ
In words: Inhibition of CD73 in mouse CD8-positive T cells using AMP as substrate preincubated for 60 mins followed by substrate addition and measured after 2.5 hrs by PiColorLock gold reagent based colorimetric assay. Type of data set: cell-based, CD8-positive T cell.

Data set [13] has as its target T4, Ectonucleoside triphosphate diphosphohydrolase 8 (Homo sapiens, UniProt Q5MY95).
T4 sequence (Q5MY95 whole entry): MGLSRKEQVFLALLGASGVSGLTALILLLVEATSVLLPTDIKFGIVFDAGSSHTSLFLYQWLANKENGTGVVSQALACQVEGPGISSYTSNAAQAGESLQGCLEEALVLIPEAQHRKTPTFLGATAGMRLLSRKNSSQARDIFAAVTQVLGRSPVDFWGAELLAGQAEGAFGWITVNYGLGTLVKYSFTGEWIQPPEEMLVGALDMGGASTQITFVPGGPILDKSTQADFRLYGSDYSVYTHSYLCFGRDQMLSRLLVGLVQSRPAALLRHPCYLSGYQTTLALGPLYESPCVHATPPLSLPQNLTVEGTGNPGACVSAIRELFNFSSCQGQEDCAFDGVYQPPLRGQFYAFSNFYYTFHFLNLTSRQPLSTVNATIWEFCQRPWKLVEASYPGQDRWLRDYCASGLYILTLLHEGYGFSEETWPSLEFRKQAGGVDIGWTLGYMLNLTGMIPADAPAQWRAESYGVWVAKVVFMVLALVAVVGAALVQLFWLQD
The data set is described as follows: Inhibition of NTPDase 8 (unknown origin) expressed in CHO cells using ATP as substrate preincubated for 1 hr followed by substrate addition and measured after 50 mins by PiColorLock gold reagent based colorimetric assay. Format: cell-based.

The nature of data set [14]: Fraction unbound in monkey plasma. Type of data set: ADME, cell-free, Macaca mulatta. To be noted: rhesus monkey.
Data set [15] can be described thus: Volume of distribution at steady state in monkey at 0.5 mg/kg, iv. The settings on record: rhesus monkey, in vivo, read-out: Vdss. Type of data set: ADME, organism-based, Macaca mulatta.
Data set [16] in a line: Volume of distribution at steady state in dog at 0.5 mg/kg, iv. Format: ADME, organism-based, Canis lupus familiaris. To be noted: in vivo, read-out: Vdss.
Data set [17] is described as follows: Half life in monkey at 0.5 mg/kg, iv. The settings on record: rhesus monkey, in vivo. Format: ADME, organism-based, Macaca mulatta.
Data set [18] is described as follows: Clearance in dog at 0.5 mg/kg, iv. Type of data set: ADME, organism-based, Canis lupus familiaris. To be noted: in vivo.
Data set [19] is described as follows: Clearance in monkey at 0.5 mg/kg, iv. Type of data set: ADME, organism-based, Macaca mulatta. To be noted: rhesus monkey, in vivo.
A short description of data set [20]: Fraction unbound in Sprague-Dawley rat plasma. Format: ADME, cell-free.

By fraction unbound is commonly meant the share of the substance not bound to proteins or other matrix. Usually IC50 stands for the concentration needed to halve the response being measured. In general, half-life refers to the time in which the quantity being followed falls by half. In general, clearance refers to the rate of elimination divided by the concentration. `C[C@H](Nc1cc(Cl)nc2c1cnn2[C@@H]1O[C@H](COP(=O)(O)CP(=O)(O)O)[C@@H](O)[C@H]1O)c1ccc(F)cc1`: the fraction unbound came to 0.0065 in [1], 0.102 in data set [9], 0.0034 in data set [14] and 0.0016 in data set [20]. Also, the IC50 was more than 10 µM in data set [2], more than 10 µM in data set [6], 0.00083 µM in data set [12] and more than 10 µM in [13]. The half-life in data set [3] is 15 h; in data set [8] it was 9.6 h; in data set [10], 6.5 h; in [17], 34 h. Further, the Vd in data set [4] is 0.11 L/kg; in data set [5] it was 0.12 L/kg; in data set [15] it was 0.078 L/kg; in data set [16], 0.63 L/kg. Further, the clearance in [7] was 0.25 mL/min/kg; in data set [11], 0.15 mL/min/kg; in data set [18], 0.567 mL/min/kg; in data set [19] it was 0.0283 mL/min/kg.

For the compound `C[C@H](Nc1nc(Cl)nc2c1cnn2[C@@H]1O[C@H](COP(=O)(O)CP(=O)(O)O)[C@@H](O)[C@H]1O)c1ccccc1`, the fraction unbound was 0.029 in data set [1], 0.187 in data set [9], 0.002 in [14] and 0.0095 in [20]. The IC50 in data set [2] was more than 10 µM; in data set [6], more than 10 µM; in data set [12], 0.00016 µM; in [13], more than 10 µM. Moreover, the half-life in [3] is 13 h; in data set [8], 1.7 h; in data set [10] it was 2 h; in data set [17], 28 h. The Vd in data set [4] amounted to 0.18 L/kg; in data set [5] it was 0.12 L/kg; in data set [15], 0.096 L/kg; in data set [16], 0.84 L/kg. For the same compound, the clearance in data set [7] was 1.27 mL/min/kg; in data set [11], 1.07 mL/min/kg; in data set [18], 1.18 mL/min/kg; in data set [19] it was 0.04 mL/min/kg.

Turning to `C[C@H](Nc1cc(Cl)nc2c1cnn2[C@@H]1O[C@H](COP(=O)(O)CP(=O)(O)O)[C@@H](O)[C@H]1O)c1ccccc1F`, the fraction unbound is 0.0089 in [1], 0.083 in data set [9], 0.0059 in data set [14] and 0.0017 in data set [20]. Besides, the IC50 in data set [2] is more than 10 µM; in data set [6], more than 10 µM; in [12], 0.00066 µM; in data set [13], more than 10 µM. Besides, the half-life in data set [3] was 22 h; in data set [8], 5.3 h; in [10], 3.5 h; in data set [17], 27 h. Further, the Vd in [4] is 0.12 L/kg; in data set [5] it was 0.12 L/kg; in data set [15] it was 0.099 L/kg; in [16], 1.3 L/kg. Moreover, the clearance was 0.417 mL/min/kg in [7], 0.333 mL/min/kg in data set [11], 0.833 mL/min/kg in data set [18] and 0.0417 mL/min/kg in data set [19].

(Values after ChEMBL document CHEMBL4665688, “Discovery of AB680: A Potent and Selective Inhibitor of CD73” (J Med Chem, 2020).)
